Data: patent US20100056524A1, “Compound” (priority 2008, published 2010)
Where a name gives a salt, the structure may show the parent alone. Read-outs that look alike come from different tables or passages of the source.

What was measured:
Type in all cases: biochemical
FGF-R1 = target: T1, FGF-R1 (Homo sapiens, UniProt P11362); assay: FGF-R1 protein kinase assay; conditions: for remaining activity at 10 µM: 10 μM compound; for residual kinase activity FGF-R1: 1 μm compound; for remaining activity at 1 µM: 1 μM compound
T1 construct: All protein kinases were of human origin and encoded full length proteins, unless indicated otherwise; made in house
T1 sequence (P11362 400-820 limits assumed): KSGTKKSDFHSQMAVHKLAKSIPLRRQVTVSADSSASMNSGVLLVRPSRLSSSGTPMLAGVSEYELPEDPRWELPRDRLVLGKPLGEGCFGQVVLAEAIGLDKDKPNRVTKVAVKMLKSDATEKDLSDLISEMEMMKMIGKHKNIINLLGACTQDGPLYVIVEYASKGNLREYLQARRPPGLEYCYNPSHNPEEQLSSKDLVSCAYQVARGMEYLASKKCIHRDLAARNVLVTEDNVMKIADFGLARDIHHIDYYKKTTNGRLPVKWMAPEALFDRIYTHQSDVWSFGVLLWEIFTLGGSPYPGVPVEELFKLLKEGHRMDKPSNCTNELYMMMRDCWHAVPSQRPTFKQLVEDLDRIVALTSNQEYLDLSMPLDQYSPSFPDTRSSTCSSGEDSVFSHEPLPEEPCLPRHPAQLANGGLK
Description: (§1) All protein kinases were of human origin and encoded full length proteins, unless indicated otherwise. They were either expressed as glutathione S-transferase (GST) fusion proteins in Escherichia Coli or as hexahistidine (His6)-tagged proteins in insect Sf21 cells. GST fusion proteins were purified by affinity chromatography on glutathione-Sepharose, and His6-tagged proteins on nickel/nitriloacetate-agarose. The procedures for expressing some of the protein kinases used herein have been detailed previously.^8,9 The following sections outline the DNA vectors synthesised and the procedures used to express and purifying protein kinases that have not been reported previously.
(§2) All assays (25.5 μl) were carried out at room temperature (21° C.) and were linear with respect to time and enzyme concentration under the conditions used. Assays were performed for 30 min using Multidrop Micro reagent dispensers (Thermo Electron Corporation, Waltham, Mass. 02454, USA) in a 96-well format. The concentration of magnesium acetate in the assays was 10 mM and the [γ-33P] ATP (800 cpm/pmol) was used at 5, 20 or 50 μM as indicated, in order to be at or below the Km for ATP for each enzyme. Protein kinases assayed at 5 μM ATP were: —ERK1, ERK8, PKBα, MARK3, Aurora C. Protein kinases assayed at 20 μM ATP were: —JNK1, PDK1, CHK1, CHK2, CDK2 and Aurora B. Protein kinases assayed at 50 μM ATP were: —MNK2, IKKepsilon and TBK1.
(§3) The assays were initiated with MgATP, stopped by addition of 5 μl of 0.5 M orthophosphoric acid and spotted on to P81 filterplates using a unifilter harvester (PerkinElmer, Boston, Mass. 02118, USA). The IC50 values of inhibitors were determined after carrying out assays at 10 different concentrations of each compound.
(§4) Unless stated otherwise, enzymes were diluted in 50 mM Tris/HCl pH 7.5, 0.1 mM EGTA, 1 mg/ml BSA, 0.1% (v/v) 2-mercaptoethanol and assayed in 50 mM Tris/HCl pH 7.5, 0.1 mM EGTA, 0.1% (v/v) 2-mercaptoethanol.

PKC zeta = target: T2, PKC zeta (Homo sapiens, UniProt Q05513); assay: PKC zeta protein kinase assay; conditions: for remaining activity at 10 µM: 10 μM compound; for residual kinase activity PKC zeta: 1 μm compound; for remaining activity at 1 µM: 1 μM compound
T2 construct: All protein kinases were of human origin and encoded full length proteins, unless indicated otherwise; made in house
T2 sequence (Q05513 1-592): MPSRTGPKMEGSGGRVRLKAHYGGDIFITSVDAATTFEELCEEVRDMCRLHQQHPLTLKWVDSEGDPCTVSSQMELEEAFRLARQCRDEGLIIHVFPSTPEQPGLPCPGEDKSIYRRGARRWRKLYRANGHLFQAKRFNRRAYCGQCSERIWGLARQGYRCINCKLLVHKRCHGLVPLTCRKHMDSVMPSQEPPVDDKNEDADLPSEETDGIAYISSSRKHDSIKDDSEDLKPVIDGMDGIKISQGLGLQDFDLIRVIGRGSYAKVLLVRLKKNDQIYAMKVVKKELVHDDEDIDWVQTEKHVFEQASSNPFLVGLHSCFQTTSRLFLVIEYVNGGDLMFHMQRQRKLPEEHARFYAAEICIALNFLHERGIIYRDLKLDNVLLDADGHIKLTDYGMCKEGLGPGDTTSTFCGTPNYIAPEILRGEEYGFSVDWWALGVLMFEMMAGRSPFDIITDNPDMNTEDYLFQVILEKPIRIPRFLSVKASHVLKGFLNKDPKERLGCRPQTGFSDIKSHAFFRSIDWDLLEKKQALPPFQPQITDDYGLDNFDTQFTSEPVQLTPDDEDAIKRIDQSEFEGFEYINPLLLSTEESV
Description: as §1, §2, §3, §4

PRAK = target: T3, PRAK (Homo sapiens, UniProt Q8IW41); assay: PRAK protein kinase assay; conditions: for remaining activity at 10 µM: 10 μM compound; for residual kinase activity PRAK: 1 μm compound; for remaining activity at 1 µM: 1 μM compound
T3 construct: All protein kinases were of human origin and encoded full length proteins, unless indicated otherwise; made in house
T3 sequence (Q8IW41 1-473): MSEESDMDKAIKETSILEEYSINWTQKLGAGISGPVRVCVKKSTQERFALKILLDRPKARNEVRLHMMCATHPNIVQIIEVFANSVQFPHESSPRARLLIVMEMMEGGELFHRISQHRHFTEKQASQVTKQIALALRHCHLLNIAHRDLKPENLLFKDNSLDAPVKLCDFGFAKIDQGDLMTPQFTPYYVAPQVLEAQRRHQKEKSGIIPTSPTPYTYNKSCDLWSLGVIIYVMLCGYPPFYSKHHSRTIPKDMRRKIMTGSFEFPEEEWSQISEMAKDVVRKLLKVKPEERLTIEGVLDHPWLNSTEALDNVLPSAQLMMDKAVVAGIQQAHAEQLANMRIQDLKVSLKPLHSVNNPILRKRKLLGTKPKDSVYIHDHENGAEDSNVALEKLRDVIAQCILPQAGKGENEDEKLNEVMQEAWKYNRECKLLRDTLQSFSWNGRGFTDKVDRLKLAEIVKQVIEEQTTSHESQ
Description: as §1, §2, §3, §4

MST2 = target: T4, MST2 (Homo sapiens, UniProt Q13188); assay: MST2 protein kinase assay; conditions: for remaining activity at 10 µM: 10 μM compound; for residual kinase activity MST2: 1 μm compound; for remaining activity at 1 µM: 1 μM compound
T4 construct: All protein kinases were of human origin and encoded full length proteins, unless indicated otherwise; made in house
T4 sequence (Q13188 1-491): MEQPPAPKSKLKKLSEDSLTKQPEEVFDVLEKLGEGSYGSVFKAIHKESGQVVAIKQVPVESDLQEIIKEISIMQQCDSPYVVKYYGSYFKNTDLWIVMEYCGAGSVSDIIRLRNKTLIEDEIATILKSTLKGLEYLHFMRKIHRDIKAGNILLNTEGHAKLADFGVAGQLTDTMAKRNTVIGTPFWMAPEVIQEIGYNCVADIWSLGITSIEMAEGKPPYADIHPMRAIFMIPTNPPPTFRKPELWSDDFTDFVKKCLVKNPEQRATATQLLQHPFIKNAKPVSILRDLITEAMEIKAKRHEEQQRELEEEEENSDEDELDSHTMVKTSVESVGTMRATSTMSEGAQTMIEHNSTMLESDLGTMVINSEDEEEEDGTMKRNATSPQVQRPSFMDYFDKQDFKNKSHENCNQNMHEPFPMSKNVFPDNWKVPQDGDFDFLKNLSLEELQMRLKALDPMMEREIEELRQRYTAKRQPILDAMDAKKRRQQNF
Description: as §1, §2, §3, §4

PKA = target: T5, PKA (Homo sapiens, UniProt P17612); assay: PKA protein kinase assay; conditions: for remaining activity at 10 µM: 10 μM compound; for residual kinase activity PKA: 1 μm compound; for remaining activity at 1 µM: 1 μM compound
T5 construct: All protein kinases were of human origin and encoded full length proteins, unless indicated otherwise; made in house
Description: as §1, §2, §3, §4

HIPK2 = target: T6, HIPK2 (Homo sapiens, UniProt Q9H2X6); assay: HIPK2 protein kinase assay; conditions: for remaining activity at 10 µM: 10 μM compound; for residual kinase activity HIPK2: 1 μm compound; for remaining activity at 1 µM: 1 μM compound
T6 construct: All protein kinases were of human origin and encoded full length proteins, unless indicated otherwise; made in house
T6 sequence (Q9H2X6 165-564 limits assumed): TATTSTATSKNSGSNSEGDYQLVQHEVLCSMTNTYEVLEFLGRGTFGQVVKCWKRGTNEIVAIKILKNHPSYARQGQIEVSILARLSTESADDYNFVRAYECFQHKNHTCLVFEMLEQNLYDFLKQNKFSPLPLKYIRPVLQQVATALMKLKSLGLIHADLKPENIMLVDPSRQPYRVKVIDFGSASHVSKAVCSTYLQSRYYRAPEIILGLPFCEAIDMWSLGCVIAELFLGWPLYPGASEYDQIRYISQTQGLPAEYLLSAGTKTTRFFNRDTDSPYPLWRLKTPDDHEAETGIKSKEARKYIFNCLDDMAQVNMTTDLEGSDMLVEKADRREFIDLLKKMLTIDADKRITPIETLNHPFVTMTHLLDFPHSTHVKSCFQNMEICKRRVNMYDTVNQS
Description: as §1, §2, §3, §4

[1] = read-out: residual kinase activity FGF-R1
[2] = read-out: residual kinase activity PKC zeta
[3] = read-out: residual kinase activity PRAK
[4] = read-out: residual kinase activity MST2
[5] = read-out: residual kinase activity PKA
[6] = read-out: residual kinase activity HIPK2
[7] = FGF-R1, read-out: residual kinase activity
[8] = PKC zeta, read-out: residual kinase activity
[9] = PRAK, read-out: residual kinase activity
[10] = MST2, read-out: residual kinase activity
[11] = PKA, read-out: residual kinase activity
[12] = HIPK2, read-out: residual kinase activity

| SMILES | remaining activity at 10 µM (FGF-R1; [1]) [%] | residual kinase activity FGF-R1 (FGF-R1) [%] | remaining activity at 10 µM (PKC zeta; [2]) [%] | residual kinase activity PKC zeta (PKC zeta) [%] | remaining activity at 10 µM (PRAK; [3]) [%] | residual kinase activity PRAK (PRAK) [%] | remaining activity at 10 µM (MST2; [4]) [%] | residual kinase activity MST2 (MST2) [%] | remaining activity at 1 µM (FGF-R1; [7]) [%] | remaining activity at 10 µM (FGF-R1; [7]) [%] | remaining activity at 1 µM (PKC zeta; [8]) [%] | remaining activity at 10 µM (PKC zeta; [8]) [%] | remaining activity at 1 µM (PRAK; [9]) [%] | remaining activity at 10 µM (PRAK; [9]) [%] | remaining activity at 1 µM (MST2; [10]) [%] | remaining activity at 10 µM (MST2; [10]) [%] | remaining activity at 1 µM (PKA; [11]) [%] | remaining activity at 10 µM (PKA; [11]) [%] | remaining activity at 1 µM (HIPK2; [12]) [%] | remaining activity at 10 µM (HIPK2; [12]) [%] | further results |
| --- | --- | --- | --- | --- | --- | --- | --- | --- | --- | --- | --- | --- | --- | --- | --- | --- | --- | --- | --- | --- | --- |
| O=C(NCCCNc1nc(Nc2cccc(F)c2)ncc1Br)C1CCC1 [Compound A, cyclobutanecarboxylic acid {3-[5-bromo-2-(3-fluoro-phenylamino)-pyrimidin-4-ylamino]-propyl}-amide, reference compound] | 1 | 17 | 42 | 90 | 31 | 65 | 6 | 29 |  |  |  |  |  |  |  |  |  |  |  |  | remaining activity at 10 µM (PKA; [5]): 22%; residual kinase activity PKA (PKA): 75%; remaining activity at 10 µM (HIPK2; [6]): 12%; residual kinase activity HIPK2 (HIPK2): 58% |
| O=C(NCCCNc1nc(Nc2cccc(F)c2)ncc1C1CC1)C1CCC1 [Example 23, Cyclobutanecarboxylic acid {3-[5-cyclopropyl-2-(3-fluoro-phenylamino)-pyrimidin-4-ylamino]-propyl}-amide] | 36 | 89 | 89 | 99 | 96 | 93 | 33 | 73 | 89 | 36 | 99 | 89 | 93 | 96 | 73 | 33 | 80 | 73 | 59 | 26 | remaining activity at 10 µM (PKA; [5]): 73%; residual kinase activity PKA (PKA): 80%; remaining activity at 10 µM (HIPK2; [6]): 26%; residual kinase activity HIPK2 (HIPK2): 59% |
| O=C(NCCCNc1nc(Nc2cccc(N3CCCC3=O)c2)ncc1C1CC1)c1cccs1 [Example 47, Thiophene-2-carboxylic acid (3-{5-cyclopropyl-2-[3-(2-oxo-pyrrolidin-1-yl)-phenylamino]-pyrimidin-4-ylamino}-propyl)-amide. Hydrochloride salt] |  |  |  |  |  |  |  |  | 78 | 31 | 80 | 78 | 70 | 76 | 84 | 70 | 96 | 80 | 88 | 67 |  |
| O=C(NCCCNc1nc(Nc2cccnc2)ncc1C1CC1)c1cccs1 [Example 50, Thiophene-2-carboxylic acid {3-[5-cyclopropyl-2-(pyridin-3-ylamino)-pyrimidin-4-ylamino]-propyl}-amide] |  |  |  |  |  |  |  |  | 77 | 31 | 84 | 73 | 64 | 64 | 73 | 33 | 91 | 80 | 83 | 54 |  |
